The nature of data set [1]: Metabolic stability in liver microsomes. Type of data set: in vitro ADME, human. On the procedure: Following this, the metabolic stability of 9 was determined against mouse, rat, and human liver microsomes. […] Within this assay the stability of the intact parent compound is monitored with respect to time, during incubation at 37 °C in the presence and absence of the co-factor NADPH – required for cytochrome p450 activity.
Metabolic Stability in Rat, Mouse and Human Liver Microsomes:
The metabolic stability of compounds at a concentration of 1 µM, in rat, mouse and human liver microsomes (BD Gentest, Franklin Lakes NJ) was measured following incubation with hepatic microsomes (0.5 mg of protein / mL) in the presence and absence of cofactor (NADPH) at 37 °C. Aliquots of each incubation were removed at 0.5, 5, 15, 30 and 60 minutes. […]
Samples were analysed using a Shimadzu Shimadzu Nexera LC Binary Gradient LC-30AD (Shimadzu Inc, Kyoto), coupled to a Sciex 5500 mass spectrometer (AB Inc., Illinois) for rat and mouse microsomes and a Sciex 6500+ for human microsomes. […]
The bi-directional permeability in Caco-2 cell lines was determined by seeding cells onto an HTS Transwell plate. […] To assess monolayer integrity the transepithelial electrical resistance (TEER) across the monolayer was measured using Millicell Epithelial volt-ohm meter prior to assay and Lucifer yellow (LY) fluorescence measurement post-assay. […]
(Liver microsomes are a subcellular fraction often used to study metabolism.)

Data set [2] in a line: Bi-directional permeability in Caco-2 cell line. Type of data set: in vitro ADME. To be noted: human; for recovery at 2 h, 5 µM: Caco-2, pH 7.4, after 2 hours. From the text: (§1) Next, to gauge the suitability of SSAs for oral dosing, 9 was subjected to a Caco-2 permeability assay which is used to both predict human intestinal permeability and investigate drug efflux, predicting in vivo compound absorption. This assay allows assessment of a compound's ability to undergo transport from the apical to the basolateral (A–B) compartments of the cell monolayer and vice versa (B–A). […] This is likely to result in poor absorption when dosed orally and therefore further development would be necessary for these agents to become suitable for oral administration. […]
(§2) The ionspray voltage was 5500V.
(§3) Bi-directional Permeability in Caco-2 Cell Line:
(§4) The bi-directional permeability in Caco-2 cell lines was determined by seeding cells onto an HTS Transwell plate. Cells were cultivated for 14-18 days in a cell culture incubator at 37°C, 5% CO2, 95% relative humidity. Cell culture medium was replaced every other day. To assess monolayer integrity the transepithelial electrical resistance (TEER) across the monolayer was measured using Millicell Epithelial volt-ohm meter prior to assay and Lucifer yellow (LY) fluorescence measurement post-assay.
(§5) Test compound was prepared in DMSO and diluted in Hank’s Balanced Saline Solution (HBSS, pH 7.4) to a final concentration of 5 µM. Compound was added to the donor compartment of the transwell plate for both apical to basolateral (A>B) and basolateral to apical (B>A) measurements, with blank HBSS being added to the receiver compartment. The transwell plate was then incubated at 37°C, 5% CO2 for 2 hours.
(§6) Samples were taken at T=0 and T=2 hours determine the concentration of initial donor sample, and the concentration of receiver and donor wells post-incubation, respectively.
(§7) The samples were quenched with solvent containing internal standard (IS). The supernatant was mixed with an appropriate volume of ultra-pure water before LC-MS/MS analysis.
(§8) Samples were analysed using a Shimadzu Nexera LC Binary Gradient LC-30AD (Shimadzu Inc, Kyoto), coupled to a Sciex 6500+ (AB Inc., Illinois). Separation of compounds was achieved using a HALO 90Å biphenyl (2.7µm,2.1x50mm) (Advanced Materials Technology, Wilmington) column at a temperature of 40°C. A binary mobile phase gradient at a flow rate of 0.7 mL/min was used. Initial LC conditions comprised of 95% solvent A (0.1% formic acid in water) and 5% solvent B (0.1% formic acid in acetonitrile). This was ramped to 95% solvent B at 0.7 minutes, held for 0.5 minutes and then immediately returned to initial conditions. Sample analysis was by electrospray ionisation combined with multiple reaction monitoring in positive ion mode. The ion spray voltage was 5500V.
(§9) In vitro Absorption, Distribution and Metabolism results
(§10) Table S1 – Result from solubility assays performed in PBS pH 7.4 for SSA 9.
(§11) Table S2 – Summary of results from Caco-2 permeability assays for SSA 9. Papp is given as […]
(§12) cm/s. A = apical; B = basolateral. Recovery = % SSA recovered from the assay after 2 hours.
(§13) ID Papp (A-B) % Recovery Papp (B-A) % Recovery Efflux Ratio
(§14) Table S3 – Summary of results from human plasma protein binding assays for SSA 9. % Bound = % of SSA bound to the plasma proteins after 6 hours incubation at 37 °C. Low % […]
(§15) = > 99 %. % Recovery = % SSA recovered from the assay after 6 hours.
(§16) ID % Bound % Recovery % Stability
(§17) Table S4 – Summary of results from mouse, rat and human microsomal stability assays for SSA 9. The in vitro half-life (t1/2) and microsomal intrinsic clearance (CLint) were calculated from the elimination rate (k, the slope of the natural log of concentration verses time curve), assuming first order kinetics, using the formulae t1/2 = 0.693/-k and CLint = 0.693/t1/2 […]. This compound would be classed as a low clearance compound in all three species. […]

The next data set deals with Caco-2 cell monolayer. Briefly: Bi-directional permeability in Caco-2 cell line. Type of data set: in vitro ADME.
Description: as §1, §2, §3, §4, §5, §6, §7, §8, §9, §10, §11, §12, §13, §14, §15, §16, §17

The conditions of data set [3]: H2O 5% EtOH, 5.56 mM; cited from earlier work.
For data set [4] the following is noted: 1H NMR DOSY, DMSO-d6 0.5% H2O, 112 mM, 298 K; cited from earlier work.
The conditions of data set [5]: H2O 5% EtOH, 5.56 mM; cited from earlier work. This is another data set of the same source.
Details of data set [6]: method as in PMID 29633393. To be noted: H2O 5% EtOH, cited from earlier work.
On the set-up of data set [7]: method as in PMID 29633393. As to conditions: equal K/dimerization model, DMSO-d6 0.5% H2O; cited from earlier work.

Values joined by “and” are separate entries in the source; they are usually repeats but may differ in a detail not shown here. Equal entries are not always repeated. Where two headings read alike, the source gives them in different places.

For orientation: microsomal CLint means the capacity of the preparation to metabolise the compound, expressed as a volume cleared per time. As a reminder, the Papp B→A is how fast a substance crosses the layer from the basolateral side. A word on the efflux ratio: it is the permeability from basolateral to apical divided by that in the opposite direction, in the common usage. By Papp A→B is commonly meant how fast a substance crosses the layer from the apical side. A high value points to fast passage.

`O=C(Nc1ccc(C(F)(F)F)cc1)N[C@H](Cc1ccccc1)C(=O)O` [SSA 9] returned a microsomal CLint at 1 µM in data set [1] (human microsomes) of less than 7.5 µL/min/mg. Further, the half-life at 1 µM in data set [1] (human, 1 µM, 0.5 mg protein/mL, read-out: In vitro t1/2) is greater than 185 min. This compound registered a Papp B→A at 2 h, 5 µM in data set [2] (Caco-2, pH 7.4, 5 µM, 2 hours, basolateral to apical) of 16.8 ×10⁻⁶ cm/s. Further, the efflux ratio at 2 h, 5 µM in data set [2] (Caco-2, pH 7.4, Caco-2) turned out to be 96.9. Moreover, the recovery at 2 h, 5 µM in data set [2] (read-out: Recovery (%) AP-BL) came out at 111%. In data set [2] (read-out: Recovery (%) BL-AP), the recovery at 2 h, 5 µM worked out at 97.7%. The Papp A→B at 2 h, 5 µM in data set [2] (Caco-2, pH 7.4, 5 µM, 2 hours, apical to basolateral) is 0.17 ×10⁻⁶ cm/s. Besides, the “Papp (B-A)” value in the data set on Caco-2 cell monolayer (5 µM, 2 hours, basolateral to apical) is 16.76 10-6 cm/s. The “Efflux Ratio” value in the data set with Caco-2 cell monolayer (Caco-2) is given as 96.91. Moreover, in the data set on Caco-2 cell monolayer (after 2 hours), the “Recovery (%) AP-BL” value was 110.78% and the “Recovery (%) BL-AP” value is 97.74%.
On to `O=C(O)CNC(=O)Nc1ccc(C(F)(F)F)cc1` [SSA 1], for which the “Zeta potential (mV)” value in data set [3] is -37 mV and −37 (ref. [30]) mV. Besides, the “dH (nm)” value in data set [4] was 1.3 (ref. [30]) nm. Also, the “dH (nm), DLS peak maxima” value in data set [5] was 220 nm and 220 (ref. [30]) nm. In data set [6] (approx. 291 K), the “CAC (mM)” value is 11.2 (ref. [30]) mM. The “Surface tension (mN m^-1)” value in data set [6] was 39.33 (ref. [30]) mN m^−1. Besides, in data set [7], the “Kdim (M^-1)” value was 41 (±1.3%)[30] M^−1.

The values above are taken from article PMC12973313 (Chemical Science, 2026).
